Test system: human Burkitt lymphoma Raji cells
Experiment: Test Example 5: effect on cytotoxic activity of rituximab and complement, PI flow cytometry (FIG. 1)
Format: cell-based
Details: rituximab + 10% human normal serum (AB type), sample 1.0 mg/ml final, 1 hour
Excerpt: The lactoferrin hydrolysate mixture prepared in Preparation Example 1 was used as Sample A, and the lactoferrin hydrolyzed peptide (lactoferrin partial peptide) prepared in Preparation Example 2 was used as Sample B. Moreover, as control samples, commercially available bovine lactoferrin (Morinaga Milk Industry Co., Ltd.) was used as Control A, and protamine sulfate was used as Control B.
Raji cells in the logarithmic growth phase were used as target cells. Raji cells collected by centrifugation of a cell suspension were suspended in fresh culture broth (RPMI 1640, 10% FCS), counted and then added to a 24-well plate in an amount of 1.0×10^5 cells/well. To each well, rituximab ([…]) and 1.0 mg/ml as a final concentration of Sample A, Sample B, Control A or Control B (or Medium [culture broth] instead of the sample) were added, and then human normal serum (AB type) was added at a final concentration of 10%. Then, the cells were cultured in a CO2 incubator for 1 hour, and PI (propidium iodide, 1 mg/ml) was added during the last 15 minutes of the culture. […] The Raji cells that died during the culture were counted by analyzing the suspension with a flow cytometer (FACScan) utilizing the fact that dead cells are positive in the nuclear staining with PI.
In this test, the cytotoxic activity was calculated in accordance with the following equation. […]

protamine sulfate [Control B]
cytotoxic activity [number of dead cells (%)] relative to Medium (culture broth): such increase of the activity was not observed

Reference: patent US7419667B2, “Drug for cancer therapy” (Morinaga Milk Industry Co. Ltd., priority 2004, dated 2008)
